Test results from the NIST ThermoML archive (doi:10.1016/j.jct.2015.08.014).

Experiment: xn = mol fraction of the nth substance listed
Conditions: 323.15 K, 100 kPa, Liquid; for electrical conductivity: Alternating current cell with electrodes; for mass density: Vibrating tube method

CCCC[N+]1(C)CCCC1.N#CN=C=[N-] [1-butyl-1-methylpyrrolidinium dicyanamide] + O=C1CCCO1
electrical conductivity [S/m]
Conditions	Frequency=0.005454 MHz	Frequency=0.006 MHz	Frequency=0.00652174 MHz	Frequency=0.00694444 MHz	Frequency=0.0075 MHz	Frequency=0.008 MHz	Frequency=0.00857143 MHz	Frequency=0.00892857 MHz	Frequency=0.00961538 MHz	Frequency=0.01 MHz
x1 = 0.0463	–	2.01	2.01	2.01	2.01	2.01	2.01	2.01	2.01	2.01
x1 = 0.0987	–	3.08	3.08	3.08	3.08	3.08	3.08	3.08	3.08	3.08
x1 = 0.1449	–	3.57	3.57	3.57	3.57	3.57	3.57	3.57	3.57	3.57
x1 = 0.1859	–	3.86	3.86	3.86	3.86	3.86	3.86	3.86	3.86	3.86
x1 = 0.2493	–	3.89	3.9	3.9	3.9	3.9	3.9	3.9	3.9	3.9
x1 = 0.3029	–	3.88	3.88	3.88	3.88	3.88	3.88	3.88	3.88	3.88
x1 = 0.3845	–	3.74	3.74	3.74	3.74	3.74	3.74	3.74	3.74	3.74
x1 = 0.4985	–	3.46	3.46	3.46	3.46	3.46	3.46	3.46	3.46	3.46
x1 = 0.6954	–	2.99	2.99	2.99	2.99	2.99	2.99	2.99	3	3
x1 = 0.9013	2.633	2.633	2.63	2.63	2.63	2.63	2.63	2.63	2.63	2.63
x1 = 1	2.529	2.529	2.529	2.529	2.529	2.529	2.529	2.529	2.529	2.529

Conditions	mass density [kg/m3]
x1 = 0.0987	1082.02
x1 = 0.1859	1067.9
x1 = 0.3029	1051.93
x1 = 0.4985	1031.43
x1 = 0.6954	1016.21
x1 = 0.9013	1004.23
x1 = 1	999.525
